{"source": "patent US8389482B2", "about": "“Short peptides useful for treatment of ischemia/reperfusion injury and other tissue damage conditions associated with nitric oxide and its reactive species” (New York University, priority 2007, dated 2013)", "key": {"[1]": {"system": "peroxynitrite (ONOO)-nitrated albumin", "experiment": "In vitro denitration of peroxynitrite-nitrated albumin, dot-immunoblotting with antibodies against 3-NT", "format": "biochemical", "conditions": "20 μM peptide, 10 mM Tris HCl pH 7.2, 25° C., after 10 minutes", "from_the_text": "Several groups have previously reported an in vivo denitration phenomenon (e.g., Kamisaki et al (1998) Proc Natl Acad Sci USA 95: 11584-11589; Aulak et al (2004) Am J Physiol Heart Circ Physiol 286: H30-H38). However, they tried to isolate denitration activity using pure 3-NT and failed. The present inventors have hypothesized that the stability of pure 3-NT is much higher than the stability of 3-NT incorporated in a protein and used ONOO-nitrated albumin as the substrate for detecting denitration activity.\nTo test the ability of L-CEFH peptide (Cys-Glu-Phe-His; SEQ ID NO: 1) to mediate 3-NT denitration in vitro, 20 μM CEFH peptide solution containing 10 mM Tris HCl pH 7.2 was added to albumin previously nitrated by peroxynitrite (ONOO^−). Denitration of the peroxynitrite (ONOO)-nitrated albumin following 0, 3, or 10 minutes of incubation with L-CEFH peptide was then visualized by dot-immunoblotting with antibodies against 3-NT."}, "[2]": {"system": "HeLa cells", "experiment": "HeLa cell survival upon NO/ONOO- exposure, MTS-based assay", "conditions": "20 μM peptide vs 5 mM cysteine", "method": "The ability of the L-CEFH peptide (Cys-Glu-Phe-His; SEQ ID NO: 1) to reduce cell death caused by nitric oxide (NO) and peroxynitrite (ONOO^−) was tested in cell culture. Following treatment with NO/ONOO^−, HeLa cells were incubated with either a control buffer, 5 mM cysteine, or 20 μM L-CEFH peptide for 40 minutes. The percentage of cells surviving was determined by a MTS-based assay (available from Promega, Madison, Wis.)."}, "[3]": {"system": "rat model of myocardial infarction", "experiment": "Myocardial ischemia-reperfusion (MI/R) injury in a rat model of myocardial infarction, infarct size NA/AR", "format": "in vivo", "method": "(§1) Myocardial ischemia (MI) was produced in anaesthetized adult male Wistar rats (300-350 grams) under controlled ventilation. After thoracotomy at the fourth intercostal space, the heart was exteriorized and a 6-0 silk ligature was passed under the left coronary artery with a needle. After 30 minutes of MI, the ligature was released and the myocardium was reperfused for 1 hour. Rats were randomized 5 minutes after the beginning of reperfusion to receive either vehicle (control, n=6) or L-CEFH peptide (0.7 mg/kg; n=9) i.v. The extent of MI/R injury, or infarct size, was determined by calculating the ratio of the area of necrosis (NA) to the area at risk (AR). Accumulation of 3-NT in the tested heart tissue corresponding to the area at risk was analyzed by Western dot-immunoblotting of total protein (extracted from the area at risk) with antibodies against 3-NT.\nRat model of myocardial infarction was generated as disclosed in Example 3, above. 0, 0.02, 0.05, 0.1, 0.14, 0.35, and 0.7 mg/kg of D-CEFH peptide (N≦4 for each concentration) were administered i.v. The extent of MI/R injury, or infarct size, was determined by calculating the ratio of the area of necrosis (NA) to the area at risk (AR)."}, "[4]": {"system": "3-nitrotyrosine (3-NT) in myocardial tissue", "experiment": "3-NT accumulation in heart tissue (area at risk) in a rat model of MI, dot-immunoblotting with anti-3-NT antibodies", "format": "in vivo", "conditions": "0.7 mg/kg i.v. 5 minutes after beginning of reperfusion", "method": "as §1"}, "[5]": {"system": "myocardial ischemia (MI) in rats", "conditions": "cited from earlier work"}, "[6]": {"system": "myocardial tissue 3-NT", "conditions": "cited from earlier work"}, "[7]": {"conditions": "5 mg/kg i.v., infused 1 minute prior to ischemia"}}, "note": "Residues, ends and D or L forms follow the SMILES beside them.", "data": [{"molecule": "N[C@@H](CS)C(=O)N[C@@H](CCC(=O)O)C(=O)N[C@@H](Cc1ccccc1)C(=O)N[C@@H](Cc1c[nH]cn1)C(=O)O", "note": "[L-CEFH, Cys-Glu-Phe-His] (H-CEFH-OH; N-terminus and C-terminus assumed)", "values": [{"measurement": "denitration of peroxynitrite (ONOO)-nitrated albumin", "setting": "[1]", "value": "> 90", "unit": "%"}, {"measurement": "times lower concentration than cysteine giving equivalent efficacy", "setting": "[2]", "value": 250, "unit": "times"}, {"measurement": "decrease in the infarct size (NA/AR) as compared to the control", "setting": "[3]; 0.7 mg/kg i.v. 5 minutes after beginning of reperfusion, 30 min MI, 1 hour reperfusion", "value": "3-5 fold"}, {"measurement": "dose producing maximal effect in preventing MI/R injury", "setting": "[3]; i.v., rat model of MI", "value": 0.7, "unit": "mg/kg"}, {"measurement": "reduction of 3-NT accumulation as compared to the control", "setting": "[4]", "value": "about 70%"}]}, {"molecule": "COC(=O)[C@@H](N)CCCNC(=N)N[N+](=O)[O-]", "note": "[L-NAME]", "values": [{"measurement": "infarct size", "setting": "[5]; 50 mg/kg i.p.", "value": "reduction"}, {"measurement": "3-NT", "setting": "[6]; 50 mg/kg i.p.", "value": "reduction"}]}, {"molecule": "O=NO", "note": "[sodium nitrite]", "values": [{"measurement": "I/R infarct size compared with saline treated controls", "setting": "[5]; [7]", "value": "significant expansion"}, {"measurement": "myocardial tissue 3-NT accumulation compared with saline treated controls", "setting": "[6]; [7]", "value": "significant expansion"}]}, {"molecule": "Cys-Glu-Phe-His [D-CEFH]", "values": [{"measurement": "fold lower concentration than L-CEFH for the same effect in preventing MI/R injury", "setting": "[3]; 0.05 mg/kg vs 0.7 mg/kg, i.v.", "value": 14, "unit": "fold"}, {"measurement": "activity in preventing MI/R injury as compared to L-CEFH", "setting": "[3]; i.v., rat model of MI", "value": "superior activity"}, {"measurement": "dose producing maximal effect in preventing MI/R injury", "setting": "[3]; i.v., rat model of MI", "value": 0.1, "unit": "mg/kg"}, {"measurement": "dose producing the same effect as the maximal effect of L-CEFH (0.7 mg/kg)", "setting": "[3]; i.v., rat model of MI", "value": 0.05, "unit": "mg/kg"}]}]}
